Read-outs that look alike come from different tables or passages of the source. Blank lines part the entries; values can stand above or below the compound they belong to.
What was measured:
[1] = system: MIA PaCa2 human pancreatic cancer cells with KRAS G12C mutation; assay: Cell experiment: anti-proliferative activity, CellTiter-Glo, MIA PaCa2; assay type: cell-based; settings: Homo sapiens, MIA PaCa-2, 120 h, 5 days culture
Description: (§1) This experiment is intended to verify that the compounds of the present invention have an inhibitory effect on the proliferation of NCI-H358 human non-small cell lung cancer cells with KRAS G12C mutation, MIA PaCa2 human pancreatic cancer cells with KRAS G12C mutation and wild-type A375 human malignant melanoma cells.
(§2) 40 μl of phosphate buffer was added to the peripheral wells of three 384-well microplates respectively, and 40 μl of cell suspension to be tested was added to the other wells of each plate respectively (plate 1: NCI-H358 cell suspension containing 500 NCI-H358 cells; plate 2: MIAPaCa2 cell suspension containing 300 MIAPaCa2 cells; plate 3: A375 cell suspension containing 300 A375 cells). The three cell plates were then placed in a carbon dioxide incubator and incubated overnight. Echo was used to perform a 3-fold gradient dilution of the compounds to be tested, and each compound was diluted with 10 concentration gradients (diluted from 50 μM to 0.003 μM), 100 nl of which was respectively added to the corresponding wells of the cell plates; after dosing, 40 μL of phosphate buffer was added to each well of rows A and P and columns 1 and 24, and then the cell plates were put back to the carbon dioxide incubator for culturing for 5 days. 20 μl of Promega CellTiter-Glo reagent per well was added to the cell plates, which was shaken at room temperature for 10 minutes in the dark to stabilize the luminescence signal. A PerkinElmer Envision multi-label analyzer was used for reading.
(§3) Data analysis: IC50 results were analyzed by GraphPad Prism 5.0 software […].

[2] = system: human pancreatic cancer MIA-PaCa2 cell; assay: In vivo drug efficacy test (1): subcutaneous xenograft tumor model; set-up: species or system BALB/c nude mice; settings: for TGI: day 20
Description: To evaluate the in vivo efficacy of the test compounds in a subcutaneous xenograft tumor model of human pancreatic cancer MIA-PaCa2 cell.
BALB/c nude mice, female, 6-8 weeks old, weighing approximately 18-22 grams. Each mouse was subcutaneously inoculated with 0.2 mL (1×10^7) of MIA-PaCa2 cells (plus matrigel, with the volume ratio being 1:1) on the right back. The administration was performed when the average tumor volume reached about 169 cubic millimeters. The tumor volume was measured twice a week, with the volume measured in cubic millimeters, and calculated by the following formula: V=0.5 a×b^2, where a and b were the long and short diameters of the tumor, respectively. The tumor suppressive effect of the compounds was evaluated by TGI (%). TGI (%) reflects the tumor growth inhibition rate. Calculation of TGI (%): TGI (%)=[(1−(average tumor volume at the end of administration in a treatment group−average tumor volume at the beginning of administration in the treatment group))/(average tumor volume at the end of treatment in the solvent control group−average tumor volume at the beginning of treatment in the solvent control group)]×100%.

[3] = Liver microsome stability test, mouse; assay type: in vitro ADME; settings: mouse liver microsomes, 0.5 mg protein/mL; read-out: mouse T1/2
Description: (§4) To test the metabolic stability of the test article in mice, rats and human liver microsomes.
(§5) 1. 10 μL of the test or control article working solution was added to all plates (T0, T5, T10, T20, T30, T60, NCF60).
(§6) 2. Liver microsome solution was dispensed into a 96-well plate at 680 μL/well, and addition was performed on each plate at 80 μL/well, and the above-mentioned incubation plate was placed at 37° C. for pre-incubation for about 10 minutes.
(§7) 4. After the pre-incubation, the NADPH regeneration system working solution was dispensed into the 96-well plate at 90 μL/well, and addition was performed on each plate at 10 μL/well to start the reaction.
(§8) 5. Incubation was performed for an appropriate time (e.g., 5, 10, 20, 30 and 60 minutes).
(§9) 6. 300 μL of the stopping solution (refrigerated at 4° C., containing 100 ng/mL of tolbutamide and 100 ng/mL of labetalol) was respectively added to each sample well.
(§10) T1/2 and Clint(mic) were calculated by the following formula.
(§11) Ct is the concentration at time t, with t being the incubation time; C0 is the concentration at 0; Ke is the elimination rate constant; Clint(mic) is the intrinsic clearance rate of liver microsomes; and Clint(liver) is the hepatic intrinsic clearance rate. CLint(mic)=0.693/half-life/mg microsomal protein per mL (microsome concentration during incubation) CLint(liver)=CLint(mic)×mg microsomal protein/g liver weight×ratio of liver weight to body weight

[4] = Liver microsome stability test, rat; assay type: in vitro ADME; settings: rat liver microsomes, 0.5 mg protein/mL; read-out: rat T1/2
Description: as §4, §5, §6, §7, §8, §9, §10, §11

[5] = system: NCI-H358 human non-small cell lung cancer cells with KRAS G12C mutation; assay: Cell experiment: anti-proliferative activity, CellTiter-Glo, NCI-H358; assay type: cell-based; settings: Homo sapiens, NCI-H358, 120 h, 5 days culture
Description: as §1, §2, §3

[6] = Liver microsome stability test, human; assay type: in vitro ADME; settings: human liver microsomes, 0.5 mg protein/mL; read-out: Human T1/2
Description: as §4, §5, §6, §7, §8, §9, §10, §11

[7] = system: wild-type A375 human malignant melanoma cells; assay: Cell experiment: anti-proliferative activity, CellTiter-Glo, A375; assay type: cell-based; settings: Homo sapiens, A-375, 120 h, 5 days culture
Description: as §1, §2, §3

[8] = Rat pharmacokinetic evaluation experiment; assay type: in vivo; settings: plasma, male SD rats; for AUC: read-out: AUC (exposure)
From the text: To determine the drug concentrations in plasma at different times after intravenous and intragastric administration of the test compounds to the rats by using the LC/MS/MS method and using male SD rats as the test animals; To study the pharmacokinetic behaviors of the test compounds in rats and to evaluate the pharmacokinetic characteristics thereof.
Experiment scheme: 10 healthy adult male SD rats were used as experimental animals and divided into 4 groups according to the principle of similar body weight, with 2 in each group of the group IV (two groups) and 3 in each group of the group PO (two groups). The animals were purchased from Beijing Vital River Laboratory Animal Technology Co., Ltd.
Group IV: an appropriate amount of samples were weighed; an appropriate amount of DMSO, PEG400 and water were added successively thereto according to the volume ratio of 10:60:30; and stirring was performed under sonication to reach a clear state of 1.5 mg/mL.
Group PO: an appropriate amount of samples were weighed; an appropriate amount of DMSO, PEG400 and water were added successively thereto according to the volume ratio of 10:60:30; and stirring was performed under sonication to reach a clear state of 1.0 mg/mL.
After fasting overnight, each rat in the group IV was administered intravenously with a volume of 2 mL/kg and a dose of 3 mg/kg; each rat in the group PO was administered intragastrically with a volume of 10 mL/kg and a dose of 10 mg/kg.
After each of the male SD rats in the group IV was administrated with the test compounds, 200 ul of blood samples were collected at 0.0833, 0.25, 0.5, 1, 2, 4, 6, 8 and 24 hours, and were placed in a commercial anticoagulation tube pre-loaded with EDTA-K2. After each rat in the group PO was administrated with the test compounds, 200 ul of blood samples were collected at 0.25, 0.5, 1, 2, 4, 6, 8 and 24 hours respectively, and were placed in a commercial anticoagulation tube pre-loaded with EDTA-K2. The test tube was centrifuged for 15 minutes to separate the plasma and stored at −60° C. 2 hours after administration, the animals can be fed. The content of the test compounds in plasma was determined by the LC/MS/MS method after intravenous and intragastric administration to the rats. The linear range of the method was from 2.00 to 6000 nM; plasma samples were analyzed after treatment of precipitating proteins by acetonitrile.
Note: Cl: clearance rate; Vd: volume of distribution; AUC: exposure; T1/2: half-life; Cmax: maximum compound concentration after oral administration; Tmax: time to reach Cmax; F: bioavailability.

[9] = reported in Cell, 2018, 172, 578-589; cited from earlier work
[10] = system: human non-small cell lung cancer NCI-H358; assay: In vivo drug efficacy test (4): subcutaneous xenograft tumor model; set-up: species or system BALB/c nude mice; settings: 15 mg/kg
Description: (§12) To evaluate the in vivo efficacy of the test compounds in a subcutaneous xenograft tumor model of human non-small cell lung cancer NCI-H358.
BALB/c nude mice, female, 6-8 weeks old, weighing 18-20 grams. A total of 40 were required. They were provided by Shanghai Lingchang Experimental Animal Co., Ltd ( ? ? ). NCI-H358 tumor cells were resuspended in PBS to prepare a cell suspension with a density of 5×10^7/mL, which was inoculated subcutaneously on the right back of each mouse (0.1 mL, 5×10^6/mouse) to wait for tumor growth. When the average tumor volume reached about 166 mm^3, randomized grouping and administration were performed, and the administration dose was shown in Table 8. The diameter of the tumor was measured with vernier calipers twice a week.
The formula for calculating the tumor volume is: V=0.5a×b^2, wherein a and b represent the long and short diameters of the tumor, respectively. The tumor suppressive effect of the compounds was evaluated by TGI (%). TGI (%) reflects the tumor growth inhibition rate. Calculation of TGI (%): TGI (%)=[(1−(average tumor volume at the end of administration in a treatment group−average tumor volume at the beginning of administration in the treatment group))/(average tumor volume at the end of treatment in the solvent control group−average tumor volume at the beginning of treatment in the solvent control group)]×100%.

KRAS G12C mutation = settings: reported in Cell, 2018, 172, 578-589; cited from earlier work
[11] = system: human pancreatic cancer x-MIA-PaCa2 cell; assay: In vivo drug efficacy test (3): subcutaneous xenograft tumor model; set-up: species or system NU/NU mice; settings: 50 mg/kg
Description: To evaluate the in vivo efficacy of the test compounds in a subcutaneous xenograft tumor model of human pancreatic cancer x-MIA-PaCa2 cell.
NU/NU mice, female, 6-8 weeks old, weighing 17-20 grams. A total of 100 were required (additional 30% of animals were inoculated). They were provided by Beijing Vital River Science and Technology Co., Ltd. Each mouse was subcutaneously inoculated with 0.2 mL (10×10^6) of x-MIA-PaCa2 cells (plus matrigel, with the volume ratio being 1:1) on the right back. When the average tumor volume reached about 150 mm^3, grouping and administration were performed, and the administration dose was shown in Table 7. The diameter of the tumor was measured with vernier calipers twice a week. The formula for calculating the tumor volume is: V=0.5a×b^2, wherein a and b represent the long and short diameters of the tumor, respectively. The tumor suppressive effect of the compounds was evaluated by TGI (%). TGI (%) reflects the tumor growth inhibition rate. Calculation of TGI (%): TGI (%)=[(1−(average tumor volume at the end of administration in a treatment group−average tumor volume at the beginning of administration in the treatment group))/(average tumor volume at the end of treatment in the solvent control group−average tumor volume at the beginning of treatment in the solvent control group)]×100%.

[12] = system: pancreatic cancer MIA-Paca2 cell; settings: reported in Cell, 2018, 172, 578-589; cited from earlier work
[13] = system: human non-small cell lung cancer NCI-H358; assay: In vivo drug efficacy test (2): subcutaneous xenograft tumor model; set-up: species or system BALB/c nude mice; settings: 100 mg/kg (0-6 days) + 50 mg/kg (7-20 days)
Description: as §12
BALB/c nude mice, female, 6-8 weeks old, weighing 18-21 grams. A total of 100 were required. They were provided by Shanghai Lingchang Experimental Animal Co., Ltd ( ? ? ). NCI-H358 tumor cells were resuspended in PBS to prepare 0.1 mL (5×10^6) of cell suspension, which was inoculated subcutaneously on the right back of each mouse (5×10^6/mouse) to wait for tumor growth. When the average tumor volume reached about 150-200 mm^3, randomized grouping and administration were performed, and the administration dose was shown in Table 6. The diameter of the tumor was measured with vernier calipers twice a week. The formula for calculating the tumor volume is: V=0.5a×b^2, wherein a and b represent the long and short diameters of the tumor, respectively. The tumor suppressive effect of the compounds was evaluated by TGI (%). TGI (%) reflects the tumor growth inhibition rate. Calculation of TGI (%): TGI (%)=[(1−(average tumor volume at the end of administration in a treatment group−average tumor volume at the beginning of administration in the treatment group))/(average tumor volume at the end of treatment in the solvent control group−average tumor volume at the beginning of treatment in the solvent control group)]×100%.

IC50 [1]: 6.48 µM
half-life [3]: > 145 min
half-life [4]: > 145 min
IC50 [5]: 5.36 µM
half-life [6]: > 145 min
IC50 [7]: > 50 µM
SMILES: C=CC(=O)N1CCN(c2ncnc3c(=O)n(-c4c(O)cccc4F)c(C(F)(F)F)cc23)CC1 [Example 2]
Tumor volume (day 20) ([2]; 50 mg/kg orally daily): 457 ± 94 mm^3
TGI ([2]; 50 mg/kg orally daily): 35%
Tumor volume (day 20) ([2]; 200 mg/kg orally daily): 307 ± 61 mm^3
TGI ([2]; 200 mg/kg orally daily): 69%

SMILES: C=CC(=O)N1CCN(c2ncnc3c(F)c(-c4c(O)cccc4F)c(Cl)cc23)CC1 [ARS-1620, reference compound]
AUC ([8]; IV 3 mg/kg): 3210 nM·h
clearance ([8]; IV 3 mg/kg, read-out: Cl (clearance rate)): 2.18 L/h/kg
half-life ([8]; IV 3 mg/kg, read-out: T1/2 (half-life) (converted)): 27.7 min
Vd ([8]; IV 3 mg/kg, read-out: Vd (volume of distribution)): 1.08 L/kg
Cmax ([8]; PO 10 mg/kg): 1.24 µM
Tmax ([8]; PO 10 mg/kg): 20 min
AUC ([8]; PO 10 mg/kg): 2320 nM·h
bioavailability ([8]; PO 10 mg/kg, read-out: F (bioavailability)): 22%
metabolic stability [9]: good metabolic stability
Tumor volume (day 27) [10]: 492 mm^3
TGI ([10]; day 27): 51.78%
cellular anti-proliferative activity at the cellular level (KRAS G12C mutation): nM-level
Tumor volume (day 14) [11]: 907 mm^3
TGI ([11]; day 14): 50.36%
tumor growth in subcutaneous xenograft tumor model [12]: effectively inhibit tumor growth
Tumor volume (day 20) [13]: 216 mm^3
TGI ([13]; day 20): 90.82%

Reference: patent publication US11453667B2, “Pyridone-pyrimidine derivative acting as KRASG12C mutein inhibitor” (MEDSHINE DISCOVERY INC., priority 2018, dated 2022)
